Experimental findings from ChEMBL document CHEMBL1134062, “Spirocyclic nonpeptide glycoprotein IIb-IIIa antagonists. Part 2: design of potent antagonists containing the 3-azaspiro[5.5]undecanes” (Bioorg Med Chem Lett, 2001) are described below.

Test [1] deals with Integrin alpha-IIb/beta-3 (Homo sapiens, UniProt P05106+P08514). The experiment in a line: In vitro inhibitory activity against blockage of binding of fibrinogen to purified human GPIIbIIIa. The test is classed as protein-complex assay.
Sequence of Integrin alpha-IIb/beta-3 (P05106 27-788 limits assumed): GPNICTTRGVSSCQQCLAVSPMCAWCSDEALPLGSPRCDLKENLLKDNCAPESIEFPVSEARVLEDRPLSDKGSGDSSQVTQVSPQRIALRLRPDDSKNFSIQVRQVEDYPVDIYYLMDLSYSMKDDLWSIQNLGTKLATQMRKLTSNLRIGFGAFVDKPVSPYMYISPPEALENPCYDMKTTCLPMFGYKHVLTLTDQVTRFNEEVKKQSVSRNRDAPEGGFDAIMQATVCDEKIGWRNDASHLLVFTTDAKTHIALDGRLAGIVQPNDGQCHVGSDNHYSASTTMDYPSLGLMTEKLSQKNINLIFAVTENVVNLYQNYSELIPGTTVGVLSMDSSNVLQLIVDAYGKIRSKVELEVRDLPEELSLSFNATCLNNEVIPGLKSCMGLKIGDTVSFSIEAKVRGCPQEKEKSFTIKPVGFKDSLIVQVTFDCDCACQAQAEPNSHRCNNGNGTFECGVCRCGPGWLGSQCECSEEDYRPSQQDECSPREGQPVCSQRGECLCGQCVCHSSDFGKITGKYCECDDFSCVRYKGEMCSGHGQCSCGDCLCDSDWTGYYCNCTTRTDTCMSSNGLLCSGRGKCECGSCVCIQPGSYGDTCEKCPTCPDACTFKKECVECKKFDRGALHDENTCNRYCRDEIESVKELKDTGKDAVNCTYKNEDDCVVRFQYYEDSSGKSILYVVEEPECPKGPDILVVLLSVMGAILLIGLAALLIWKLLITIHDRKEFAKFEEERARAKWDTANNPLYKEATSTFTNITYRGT
Sequence of Integrin alpha-IIb/beta-3 (P08514 32-887 limits assumed): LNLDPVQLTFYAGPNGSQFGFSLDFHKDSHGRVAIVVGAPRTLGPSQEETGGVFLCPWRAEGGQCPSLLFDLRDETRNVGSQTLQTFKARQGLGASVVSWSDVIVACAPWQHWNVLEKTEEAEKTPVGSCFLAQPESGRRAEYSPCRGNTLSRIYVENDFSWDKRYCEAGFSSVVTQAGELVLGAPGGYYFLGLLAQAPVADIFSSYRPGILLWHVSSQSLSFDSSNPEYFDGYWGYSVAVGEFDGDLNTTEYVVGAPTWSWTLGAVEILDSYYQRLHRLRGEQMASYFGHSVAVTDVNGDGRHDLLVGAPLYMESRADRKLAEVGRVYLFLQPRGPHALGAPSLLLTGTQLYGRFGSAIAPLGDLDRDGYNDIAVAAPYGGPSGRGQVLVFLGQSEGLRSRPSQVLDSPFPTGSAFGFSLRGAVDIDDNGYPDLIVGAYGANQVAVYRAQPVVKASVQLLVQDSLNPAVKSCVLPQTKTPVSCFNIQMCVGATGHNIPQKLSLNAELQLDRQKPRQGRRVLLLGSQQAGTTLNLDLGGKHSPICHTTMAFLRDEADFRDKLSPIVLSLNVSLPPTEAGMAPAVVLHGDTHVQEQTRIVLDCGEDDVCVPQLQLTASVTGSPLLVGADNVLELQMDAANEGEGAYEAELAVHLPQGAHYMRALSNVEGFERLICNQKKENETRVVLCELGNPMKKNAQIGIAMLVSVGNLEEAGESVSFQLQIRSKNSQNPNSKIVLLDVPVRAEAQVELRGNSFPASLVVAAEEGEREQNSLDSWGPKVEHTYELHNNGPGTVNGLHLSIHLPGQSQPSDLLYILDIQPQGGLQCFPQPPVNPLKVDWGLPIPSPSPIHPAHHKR
Sequence of Integrin alpha-IIb/beta-3 (P08514 891-1039 limits assumed): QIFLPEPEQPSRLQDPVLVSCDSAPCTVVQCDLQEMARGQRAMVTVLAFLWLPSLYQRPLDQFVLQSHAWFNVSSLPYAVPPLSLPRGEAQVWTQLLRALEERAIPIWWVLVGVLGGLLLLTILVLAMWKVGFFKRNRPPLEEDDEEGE
The species entered for the next test is Homo sapiens. The test can be described thus: In vitro ability to inhibit the aggregation of ADP-stimulated human platelets. The test is classed as functional.

As to `CCCCOC(=O)N[C@@H](CNC(=O)C1CCC2(CC1)CCN(c1ccncc1)CC2)C(=O)O`, the figures for the IC50 (in test [1]; in the test listed under Homo sapiens) were 8 nM and 1300 nM, respectively. For the compound `Cc1noc(C)c1S(=O)(=O)N[C@@H](CNC(=O)C1CCC2(CC1)CCN(c1ccncc1)CC2)C(=O)O`, the IC50 in the test filed under Homo sapiens turned out to be 40 nM. The same measure, in the same setting: in the case of `CCCCS(=O)(=O)N[C@@H](CNC(=O)C1CCC2(CC1)CCN(c1ccncc1)CC2)C(=O)O` it was 179 nM. As to `O=C(O)CCC(=O)N1CCC2(CCC(C(=O)N3CCC(C4CCNCC4)CC3)CC2)CC1`, the IC50 turned out to be 100000 nM in test [1] and 50000 nM in the test listed under Homo sapiens. For `O=C(N[C@@H](CNC(=O)C1CCC2(CC1)CCN(c1ccncc1)CC2)C(=O)O)OCc1ccccc1`, in that order: 2 nM and 2700 nM. For `N[C@@H](CNC(=O)C1CCC2(CC1)CCN(c1ccncc1)CC2)C(=O)O`, in that order: 830 nM and 12200 nM.

For `O=C(O)CN1CCC2(CCC(C(=O)N3CCC(C4CCNCC4)CC3)CC2)CC1`, the IC50 in test [1] was found to be 250 nM; in the test listed under Homo sapiens, 289 nM. `N=C(N)c1ccc(C(=O)N2CCC3(CCC(C(=O)NCC(=O)O)CC3)CC2)cc1` yielded an IC50 in the test filed under Homo sapiens of 38500 nM. On to `CC(CNC(=O)C1CCC2(CC1)CCN(c1ccncc1)CC2)CC(=O)O` (stereo not drawn), for which the IC50 is 332 nM in test [1] and 4000 nM in the test filed under Homo sapiens.

Consider `N=C(N)c1ccc(C(=O)N2CCC3(CCC(C(=O)O)CC3)CC2)cc1`, for which the IC50 in test [1] was 15000 nM; in the test filed under Homo sapiens it was 19700 nM. As for `O=C(O)CCCNC(=O)C1CCC2(CC1)CCN(c1ccncc1)CC2`, the IC50 is 319 nM in test [1] and 12000 nM in the test listed under Homo sapiens.

Regarding `N=C(N)c1ccc(N2CCC3(CCC(C(=O)NCCCC(=O)O)CC3)CC2)cc1`, the IC50 in test [1] was found to be 5000 nM; in the test listed under Homo sapiens, 37100 nM. For `O=C(O)CCCC(=O)N1CCC2(CCC(C(=O)N3CCC(C4CCNCC4)CC3)CC2)CC1`, in that order: 100000 nM and 50000 nM. For `O=C(O)CNC1CCC2(CC1)CCN(c1ccncc1)CC2`, in that order: 160 nM and 890 nM. For `O=C(O)CN1CCC2(CCC(C(=O)N3CCN(c4ccncc4)CC3)CC2)CC1`, in that order: 364 nM and 117 nM.

Regarding `C[C@@H](CC(=O)O)NC(=O)C1CCC2(CC1)CCN(c1ccncc1)CC2`, the IC50 came to 616 nM in test [1] and 14300 nM in the test filed under Homo sapiens. For the compound `O=C(O)CCN1CCC2(CCC(C(=O)N3CCN(c4ccncc4)CC3)CC2)CC1`, the results for the IC50 (in test [1]; in the test listed under Homo sapiens) were 3450 nM and 7900 nM, respectively. For `N=C(N)c1ccc(N2CCC3(CCC(C(=O)NCCC(=O)O)CC3)CC2)cc1`, in that order: 60 nM and 5500 nM. For `O=C(O)COC1CCC2(CC1)CCN(c1ccncc1)CC2`, in that order: 250 nM and 1100 nM.

In the test listed under Homo sapiens, `O=C(O)CCNC1CCC2(CC1)CCN(c1ccncc1)CC2` gave an IC50 of 4500 nM. This counts as single-digit micromolar.

The compound `Cc1ccc(S(=O)(=O)N[C@@H](CNC(=O)C2CCC3(CC2)CCN(c2ccncc2)CC3)C(=O)O)cc1` registered an IC50 in the test filed under Homo sapiens of 177 nM. On the same count and under the same terms, to `O=C(O)C[C@@H](NC(=O)C1CCC2(CC1)CCN(c1ccncc1)CC2)c1ccccc1` belongs 77000 nM.
